Legend:
PAM activity = experiment: Circulating PAM activity in rats after intravenous injection of PAM, ascorbate or both, measured without exogenous ascorbate; assay type: in vivo, Wistar rats
[1] = biological target: T1, circulating human PAM activity (Homo sapiens, UniProt P19021); experiment: Amidating activity in healthy human volunteers after oral ascorbate uptake, measured without exogenous ascorbate; assay type: in vivo; conditions: 2000 mg oral single dose
T1 construct: Human serum or Li-Heparin plasma from self-reported healthy volunteers was used as source of human native PAM; from tissue; host or cells: Li-heparin plasma and serum of healthy human volunteers
T1 sequence (P19021 31-973): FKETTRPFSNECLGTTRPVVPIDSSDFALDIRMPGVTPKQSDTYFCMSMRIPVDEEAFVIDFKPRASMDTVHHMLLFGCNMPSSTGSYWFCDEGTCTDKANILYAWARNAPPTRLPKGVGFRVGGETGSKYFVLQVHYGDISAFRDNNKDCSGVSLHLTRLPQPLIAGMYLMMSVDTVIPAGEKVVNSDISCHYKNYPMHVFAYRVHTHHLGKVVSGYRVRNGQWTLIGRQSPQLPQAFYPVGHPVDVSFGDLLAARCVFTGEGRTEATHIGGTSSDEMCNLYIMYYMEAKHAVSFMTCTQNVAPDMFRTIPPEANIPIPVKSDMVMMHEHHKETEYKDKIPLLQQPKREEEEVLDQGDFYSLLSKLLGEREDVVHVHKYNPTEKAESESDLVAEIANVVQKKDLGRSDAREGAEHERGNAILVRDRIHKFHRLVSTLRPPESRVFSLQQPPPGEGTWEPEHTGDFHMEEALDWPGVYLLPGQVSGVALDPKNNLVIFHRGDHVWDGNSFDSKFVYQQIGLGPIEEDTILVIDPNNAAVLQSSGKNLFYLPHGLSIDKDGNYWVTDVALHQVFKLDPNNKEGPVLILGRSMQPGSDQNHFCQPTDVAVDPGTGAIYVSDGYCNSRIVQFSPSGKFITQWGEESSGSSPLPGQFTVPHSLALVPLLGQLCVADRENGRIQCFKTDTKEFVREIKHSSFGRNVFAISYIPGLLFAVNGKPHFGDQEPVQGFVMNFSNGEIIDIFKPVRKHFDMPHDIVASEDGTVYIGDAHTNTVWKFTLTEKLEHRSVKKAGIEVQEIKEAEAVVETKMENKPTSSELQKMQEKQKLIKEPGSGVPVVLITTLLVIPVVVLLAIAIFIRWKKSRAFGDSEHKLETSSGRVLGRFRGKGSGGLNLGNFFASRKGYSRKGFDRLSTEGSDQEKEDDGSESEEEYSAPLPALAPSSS
Description: FIG. 23: Amidating activity in healthy human volunteers before (0 h) and after oral ascorbate uptake measured without addition of exogenous ascorbate. AMA at t=0 h was set as 100%.
Human serum or Li-Heparin plasma from self-reported healthy volunteers was used as source of human native PAM. Each sample (20 μl) was diluted two-fold in 100 mM Tris-HCl in duplicate. The amidation reaction was initiated by addition of 160 μl of PAM-reaction buffer (100 mM Tris-HCl, pH 7.5, 6.25 μM CuSO4, 2.5 mM L-ascorbate, 125 μg/mL catalase, 62.5 μM amastatin, 250 μM leupeptin, 36 ng/mL synthetic ADM-Gly and 375 μg/mL NT-ADM antibody). Afterwards, 100 μl of each individual reaction of duplicated samples were combined and transferred into 20 μl of 200 mM EDTA to terminate the amidation reaction and to generate t=0 minutes reaction time-point followed by incubation at 37° C. for 40 minutes. Afterwards the non-terminated reactions were stopped with 10 μl of 200 mM EDTA. To determine the PAM activity, bio-ADM as reaction product was quantified in each sample using the Sphingotest® bio-ADM immunoassay (Weber et al. 2017). The amidation assay was calibrated using a 6-point calibration curve generated with human recombinant PAM of known activity. Samples and calibrators were treated in the same manner. Relative light units (RLU t40 min-t0 min) determined via Sphingotest® bio-ADM immunoassay for each sample were fitted against the RLU (t40 min-t0 min) of the calibrator to determine the PAM activity in the samples. PAM activity is described as “adrenomedullin maturation activity” (AMA) in μg bio-ADM formed per hour and L of sample.
Healthy volunteers (n=4) received 2000 mg of vitamin C (Dr. Scheffler, Additiva® Vitamin C) as an oral single dose. Blood sampling was performed prior to- and 1, 2 and 3 hours post administration. Basal amidating activity was determined from Li-heparin plasma and serum as described in example 3 in absence of exogenous ascorbate addition and is shown in FIG. 23.

bio-ADM = experiment: Circulating bio-ADM concentration in rats after intravenous injection of PAM, ascorbate or both; assay type: in vivo, Wistar rats
[2] = biological target: T2, adrenomedullin-Gly (ADM-Gly) (UniProt P35318)
T2 sequence: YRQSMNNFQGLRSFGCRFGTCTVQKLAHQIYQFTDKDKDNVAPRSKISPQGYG

[3] = biological target: T3, adrenomedullin-Gly (ADM-Gly), P35318
T3 chain: T2 sequence

Molecule: O=C1O[C@H]([C@@H](O)CO)C(O)=C1O [Ascorbate, vitamin C, reference compound]
- PAM activity compared to placebo group (PAM activity; 120 min past injection): comparable to PAM activity in the placebo group
- time of maximal elevation of PAM activity past injection (PAM activity; single i.v. injection): 15 min
- elevation of circulating PAM activity (PAM activity; single i.v. injection of 500 μl (PAM 50 μg/mL, ascorbate 40 mg/mL), vs placebo): non-significant elevation
- time PAM activity remained elevated after injection (PAM activity; single i.v. injection, significantly elevated for PAM and the combination): 60 min
- PAM activity elevated by the factor compared to prior to ascorbate uptake ([1]; 1 h after uptake): 1.7
- PAM activity elevated by the factor compared to prior to ascorbate uptake ([1]; 2 h post uptake): ~2
- PAM activity elevated by the factor compared to prior to ascorbate uptake ([1]; 3 h post uptake): ~2
- bio-ADM concentration elevated by the factor (normalized to placebo) (bio-ADM; after 15 min): 1.4
- bio-ADM concentration elevated by the factor (normalized to placebo) (bio-ADM; after 30 min): 1.4
- bio-ADM concentration elevated by the factor (normalized to placebo) (bio-ADM; after 45 min): 1.2
- bio-ADM concentration elevated by the factor (normalized to placebo) (bio-ADM; after 60 min): returned to baseline levels
- bio-ADM concentration compared to the Placebo group (bio-ADM; after 120 minutes): not significantly different

Molecule: native human PAM in human plasma or serum
- formation of bio-ADM (Sphingotest bio-ADM immunoassay) in human Li-Heparin plasma [2]: When ADM-Gly was added to the sample, a linear formation of bio-ADM was detected within 90 minutes
- formation of bio-ADM from endogenous ADM-Gly in human Li-Heparin plasma [2]: endogenous human PAM enzyme is capable of the conversion of endogenous human ADM-Gly to bioADM in a time-dependent manner

B1: recombinant human PAM (peptidylglycine alpha-amidating monooxygenase, amino acids 21-834, C-terminal hexa-histidine tag linked via a GS linker) (protein)
chain: SPLSVFKRFKETTRPFSNECLGTTRPVVPIDSSDFALDIRMPGVTPKQSDTYFCMSMRIPVDEEAFVIDFKPRASMDTVHHMLLFGCNMPSSTGSYWFCDEGTCTDKANILYAWARNAPPTRLPKGVGFRVGGETGSKYFVLQVHYGDISAFRDNNKDCSGVSLHLTRLPQPLIAGMYLMMSVDTVIPAGEKVVNSDISCHYKNYPMHVFAYRVHTHHLGKVVSGYRVRNGQWTLIGRQSPQLPQAFYPVGHPVDVSFGDLLAARCVFTGEGRTEATHIGGTSSDEMCNLYIMYYMEAKHAVSFMTCTQNVAPDMFRTIPPEANIPIPVKSDMVMMHEHHKETEYKDKIPLLQQPKREEEEVLDQGDFYSLLSKLLGEREDVVHVHKYNPTEKAESESDLVAEIANVVQKKDLGRSDAREGAEHERGNAILVRDRIHKFHRLVSTLRPPESRVFSLQQPPPGEGTWEPEHTGDFHMEEALDWPGVYLLPGQVSGVALDPKNNLVIFHRGDHVWDGNSFDSKFVYQQIGLGPIEEDTILVIDPNNAAVLQSSGKNLFYLPHGLSIDKDGNYWVTDVALHQVFKLDPNNKEGPVLILGRSMQPGSDQNHFCQPTDVAVDPGTGAIYVSDGYCNSRIVQFSPSGKFITQWGEESSGSSPLPGQFTVPHSLALVPLLGQLCVADRENGRIQCFKTDTKEFVREIKHSSFGRNVFAISYIPGLLFAVNGKPHFGDQEPVQGFVMNFSNGEIIDIFKPVRKHFDMPHDIVASEDGTVYIGDAHTNTVWKFTLTEKLEHRSVKKAGIEVQEIKEAEAVVGSHHHHHH
- bio-ADM synthesis rate [3]: by an averaged factor of 1.8 at each time-point
